# Measured values: PMC10239507, “Development of allosteric and selective CDK2 inhibitors for contraception with negative cooperativity to cyclin binding” (Nature Communications, 2023)
# What was measured:
# Test in all cases: biochemical
# [1] = molecular target: T1, 371 kinases (kinase named in each endpoint) (Homo sapiens, UniProt Q9H0K1); conditions: SIK2
# T1 construct: purchased Reaction Biology
# [2] = molecular target: T2, 371 kinases (kinase named in each endpoint) (Homo sapiens, UniProt Q07912); conditions: ACK1
# T2 construct: purchased Reaction Biology
# [3] = molecular target: T3, 371 kinases (kinase named in each endpoint) (Homo sapiens, UniProt Q15139); conditions: PKCMU/PRKD1
# T3 construct: purchased Reaction Biology
# [4] = molecular target: T4, 371 kinases (kinase named in each endpoint) (Homo sapiens, UniProt P51617); conditions: IRAK1
# T4 construct: purchased Reaction Biology
# [5] = molecular target: T5, 371 kinases (kinase named in each endpoint) (Homo sapiens, UniProt Q16816); conditions: PHKG1
# T5 construct: purchased Reaction Biology
# [6] = molecular target: T6, 371 kinases (kinase named in each endpoint) (Homo sapiens, UniProt P31749); conditions: AKT1
# T6 construct: purchased Reaction Biology
# [7] = molecular target: T7, 371 kinases (kinase named in each endpoint) (Homo sapiens, UniProt O15530); conditions: PDK1/PDPK1
# T7 construct: purchased Reaction Biology
# [8] = molecular target: T8, 371 kinases (kinase named in each endpoint) (Homo sapiens, UniProt Q9NY57); conditions: STK32B/YANK2
# T8 construct: purchased Reaction Biology
# [9] = molecular target: T9, 371 kinases (kinase named in each endpoint) (Homo sapiens, UniProt Q99759); conditions: MEKK3
# T9 construct: purchased Reaction Biology
# [10] = molecular target: T10, 371 kinases (kinase named in each endpoint) (Homo sapiens, UniProt Q8IY84); conditions: NIM1
# T10 construct: purchased Reaction Biology
# [11] = molecular target: T11, 371 kinases (kinase named in each endpoint) (Homo sapiens, UniProt Q8WXR4); conditions: MYO3B
# T11 construct: purchased Reaction Biology
# [12] = molecular target: T12, 371 kinases (kinase named in each endpoint) (Homo sapiens, UniProt Q96S53); conditions: TESK2
# T12 construct: purchased Reaction Biology
# [13] = molecular target: T13, 371 kinases (kinase named in each endpoint) (Homo sapiens, UniProt Q9H2K8); conditions: TAOK3/JIK
# T13 construct: purchased Reaction Biology
# [14] = molecular target: T14, 371 kinases (kinase named in each endpoint) (Homo sapiens, UniProt Q9Y6E0); conditions: MST3/STK24
# T14 construct: purchased Reaction Biology
# [15] = molecular target: T15, 371 kinases (kinase named in each endpoint) (Homo sapiens, UniProt Q04759); conditions: PKCTHETA
# T15 construct: purchased Reaction Biology
# [16] = molecular target: T16, 371 kinases (kinase named in each endpoint) (Homo sapiens, UniProt Q02156); conditions: PKCEPSILON
# T16 construct: purchased Reaction Biology
# [17] = molecular target: T17, 371 kinases (kinase named in each endpoint) (Homo sapiens, UniProt P25098); conditions: GRK2
# T17 construct: purchased Reaction Biology
# [18] = molecular target: T18, 371 kinases (kinase named in each endpoint) (Homo sapiens, UniProt Q9UIK4); conditions: DAPK2
# T18 construct: purchased Reaction Biology
# [19] = molecular target: T19, 371 kinases (kinase named in each endpoint) (Homo sapiens, UniProt O95835); conditions: LATS1
# T19 construct: purchased Reaction Biology
# [20] = molecular target: T20, 371 kinases (kinase named in each endpoint) (Homo sapiens, UniProt Q13177); conditions: PAK2
# T20 construct: purchased Reaction Biology
# [21] = molecular target: T21, 371 kinases (kinase named in each endpoint) (Homo sapiens, UniProt Q9Y2H1); conditions: STK38L/NDR2
# T21 construct: purchased Reaction Biology
# [22] = molecular target: T22, 371 kinases (kinase named in each endpoint) (Homo sapiens, UniProt P49760); conditions: CLK2
# T22 construct: purchased Reaction Biology
# [23] = molecular target: T23, 371 kinases (kinase named in each endpoint) (Homo sapiens, UniProt Q13164); conditions: ERK5/MAPK7
# T23 construct: purchased Reaction Biology
# [24] = molecular target: T24, 371 kinases (kinase named in each endpoint) (Homo sapiens, UniProt Q14012); conditions: CAMK1A
# T24 construct: purchased Reaction Biology
# [25] = molecular target: T25, 371 kinases (kinase named in each endpoint) (Homo sapiens, UniProt Q9Y243); conditions: AKT3
# T25 construct: purchased Reaction Biology
# [26] = molecular target: T26, 371 kinases (kinase named in each endpoint) (Homo sapiens, UniProt P00533); conditions: EGFR
# T26 construct: purchased Reaction Biology
# [27] = molecular target: T27, 371 kinases (kinase named in each endpoint) (Homo sapiens, UniProt Q15746); conditions: MLCK/MYLK
# T27 construct: purchased Reaction Biology
# [28] = molecular target: T28, 371 kinases (kinase named in each endpoint) (Homo sapiens, UniProt O00311); conditions: CDC7/DBF4
# T28 construct: purchased Reaction Biology
# [29] = molecular target: T29, 371 kinases (kinase named in each endpoint) (Homo sapiens, UniProt P41240); conditions: CSK
# T29 construct: purchased Reaction Biology
# [30] = molecular target: T30, 371 kinases (kinase named in each endpoint) (Homo sapiens, UniProt Q16832); conditions: DDR2
# T30 construct: purchased Reaction Biology
# [31] = molecular target: T31, 371 kinases (kinase named in each endpoint) (Homo sapiens, UniProt Q96KB5); conditions: PBK/TOPK
# T31 construct: purchased Reaction Biology
# [32] = molecular target: T32, 371 kinases (kinase named in each endpoint) (Homo sapiens, UniProt Q8N5S9); conditions: CAMKK1
# T32 construct: purchased Reaction Biology
# [33] = molecular target: T33, 371 kinases (kinase named in each endpoint) (Homo sapiens, UniProt P54764); conditions: EPHA4
# T33 construct: purchased Reaction Biology
# [34] = molecular target: T34, 371 kinases (kinase named in each endpoint) (Homo sapiens, UniProt P21709); conditions: EPHA1
# T34 construct: purchased Reaction Biology
# [35] = molecular target: T35, 371 kinases (kinase named in each endpoint) (Homo sapiens, UniProt Q15831); conditions: LKB1
# T35 construct: purchased Reaction Biology
# [36] = molecular target: T36, 371 kinases (kinase named in each endpoint) (Homo sapiens, UniProt Q00535)
# T36 construct: purchased Reaction Biology
# T36 sequence (Q00535 whole entry): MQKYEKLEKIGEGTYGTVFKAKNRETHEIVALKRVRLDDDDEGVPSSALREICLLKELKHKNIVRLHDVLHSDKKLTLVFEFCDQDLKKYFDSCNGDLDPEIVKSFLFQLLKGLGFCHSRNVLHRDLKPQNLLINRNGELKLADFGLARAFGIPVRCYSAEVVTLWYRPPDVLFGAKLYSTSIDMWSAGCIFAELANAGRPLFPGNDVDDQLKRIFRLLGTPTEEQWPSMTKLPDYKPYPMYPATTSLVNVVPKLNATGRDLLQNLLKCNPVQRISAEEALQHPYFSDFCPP
# T3 sequence (Q15139 whole entry): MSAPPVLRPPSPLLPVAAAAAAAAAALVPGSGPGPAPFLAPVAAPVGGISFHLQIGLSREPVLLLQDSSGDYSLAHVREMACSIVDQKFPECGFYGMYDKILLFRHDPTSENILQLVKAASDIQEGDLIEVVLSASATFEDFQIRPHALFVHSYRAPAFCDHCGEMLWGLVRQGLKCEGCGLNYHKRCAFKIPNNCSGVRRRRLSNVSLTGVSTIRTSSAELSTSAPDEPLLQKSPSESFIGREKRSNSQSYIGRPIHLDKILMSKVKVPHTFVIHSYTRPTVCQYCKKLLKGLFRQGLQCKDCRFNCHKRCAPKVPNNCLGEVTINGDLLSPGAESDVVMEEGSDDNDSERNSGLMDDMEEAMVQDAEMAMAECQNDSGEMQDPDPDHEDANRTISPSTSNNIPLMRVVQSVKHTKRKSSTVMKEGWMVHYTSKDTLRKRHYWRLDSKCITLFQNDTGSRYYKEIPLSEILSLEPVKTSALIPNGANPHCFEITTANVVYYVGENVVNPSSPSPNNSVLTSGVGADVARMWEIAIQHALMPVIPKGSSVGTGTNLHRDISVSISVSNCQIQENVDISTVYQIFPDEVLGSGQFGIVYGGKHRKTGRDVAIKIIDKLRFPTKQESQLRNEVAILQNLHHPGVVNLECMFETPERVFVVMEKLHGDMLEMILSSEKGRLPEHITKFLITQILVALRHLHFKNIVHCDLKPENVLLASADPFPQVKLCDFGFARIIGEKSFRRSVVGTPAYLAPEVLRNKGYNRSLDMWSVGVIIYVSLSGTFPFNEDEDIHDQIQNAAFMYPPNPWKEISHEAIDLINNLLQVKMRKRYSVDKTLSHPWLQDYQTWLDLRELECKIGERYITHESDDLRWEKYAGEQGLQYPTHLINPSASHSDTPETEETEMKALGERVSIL
# T28 sequence (O00311 whole entry): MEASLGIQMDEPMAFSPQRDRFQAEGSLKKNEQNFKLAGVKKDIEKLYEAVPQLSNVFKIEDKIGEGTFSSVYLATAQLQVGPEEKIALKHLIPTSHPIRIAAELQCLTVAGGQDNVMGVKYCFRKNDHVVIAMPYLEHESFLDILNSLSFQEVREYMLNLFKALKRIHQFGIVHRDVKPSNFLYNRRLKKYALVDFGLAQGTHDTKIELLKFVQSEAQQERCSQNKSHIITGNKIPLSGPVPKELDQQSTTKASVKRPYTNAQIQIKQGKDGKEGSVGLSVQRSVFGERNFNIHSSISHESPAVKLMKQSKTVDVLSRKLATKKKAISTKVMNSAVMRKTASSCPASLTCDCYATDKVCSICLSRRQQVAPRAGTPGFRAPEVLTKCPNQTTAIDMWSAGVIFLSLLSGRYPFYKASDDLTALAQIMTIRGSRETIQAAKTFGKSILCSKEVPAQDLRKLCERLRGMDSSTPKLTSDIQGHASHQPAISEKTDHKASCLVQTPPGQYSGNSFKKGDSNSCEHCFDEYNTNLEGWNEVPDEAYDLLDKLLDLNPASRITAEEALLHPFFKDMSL
# T17 sequence (P25098 whole entry): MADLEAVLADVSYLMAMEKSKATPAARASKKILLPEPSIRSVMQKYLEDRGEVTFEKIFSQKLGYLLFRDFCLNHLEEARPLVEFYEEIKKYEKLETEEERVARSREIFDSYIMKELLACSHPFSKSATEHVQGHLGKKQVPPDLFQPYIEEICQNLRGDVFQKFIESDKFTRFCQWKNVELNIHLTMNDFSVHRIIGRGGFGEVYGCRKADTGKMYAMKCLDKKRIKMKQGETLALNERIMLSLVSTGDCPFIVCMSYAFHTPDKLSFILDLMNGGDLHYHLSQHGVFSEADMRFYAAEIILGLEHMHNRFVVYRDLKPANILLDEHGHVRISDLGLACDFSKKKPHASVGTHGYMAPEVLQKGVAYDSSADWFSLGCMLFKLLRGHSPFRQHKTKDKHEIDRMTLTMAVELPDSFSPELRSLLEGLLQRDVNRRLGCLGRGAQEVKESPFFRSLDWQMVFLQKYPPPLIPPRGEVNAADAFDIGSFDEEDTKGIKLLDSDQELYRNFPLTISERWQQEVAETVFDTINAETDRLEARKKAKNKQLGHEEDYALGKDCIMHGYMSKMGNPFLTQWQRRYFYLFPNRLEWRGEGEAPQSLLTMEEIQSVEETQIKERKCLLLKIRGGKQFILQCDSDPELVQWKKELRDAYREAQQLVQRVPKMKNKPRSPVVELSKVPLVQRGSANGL
# T21 sequence (Q9Y2H1 whole entry): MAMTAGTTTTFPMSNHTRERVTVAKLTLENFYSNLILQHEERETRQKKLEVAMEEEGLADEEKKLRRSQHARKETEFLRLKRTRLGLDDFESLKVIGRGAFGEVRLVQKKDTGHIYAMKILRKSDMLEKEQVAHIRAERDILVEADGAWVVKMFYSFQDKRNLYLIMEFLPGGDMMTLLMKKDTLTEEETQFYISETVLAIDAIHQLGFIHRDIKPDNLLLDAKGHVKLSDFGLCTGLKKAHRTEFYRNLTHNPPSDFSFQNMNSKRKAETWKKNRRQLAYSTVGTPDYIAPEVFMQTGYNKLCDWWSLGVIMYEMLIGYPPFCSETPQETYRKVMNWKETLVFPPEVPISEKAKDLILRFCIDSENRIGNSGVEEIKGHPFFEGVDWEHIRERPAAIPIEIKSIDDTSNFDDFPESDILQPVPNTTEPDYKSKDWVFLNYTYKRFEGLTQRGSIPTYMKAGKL
# T5 sequence (Q16816 whole entry): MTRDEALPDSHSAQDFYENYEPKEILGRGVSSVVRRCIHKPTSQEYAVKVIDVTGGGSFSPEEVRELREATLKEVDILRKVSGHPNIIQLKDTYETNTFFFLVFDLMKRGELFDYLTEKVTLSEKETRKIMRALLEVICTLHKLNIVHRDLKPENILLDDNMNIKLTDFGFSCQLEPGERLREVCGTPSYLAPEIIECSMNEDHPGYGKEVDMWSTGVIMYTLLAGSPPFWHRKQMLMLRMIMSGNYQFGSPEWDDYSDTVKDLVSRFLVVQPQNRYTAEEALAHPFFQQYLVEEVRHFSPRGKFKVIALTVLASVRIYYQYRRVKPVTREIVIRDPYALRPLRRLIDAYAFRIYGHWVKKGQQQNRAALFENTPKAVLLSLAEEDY
# T11 sequence (Q8WXR4 whole entry): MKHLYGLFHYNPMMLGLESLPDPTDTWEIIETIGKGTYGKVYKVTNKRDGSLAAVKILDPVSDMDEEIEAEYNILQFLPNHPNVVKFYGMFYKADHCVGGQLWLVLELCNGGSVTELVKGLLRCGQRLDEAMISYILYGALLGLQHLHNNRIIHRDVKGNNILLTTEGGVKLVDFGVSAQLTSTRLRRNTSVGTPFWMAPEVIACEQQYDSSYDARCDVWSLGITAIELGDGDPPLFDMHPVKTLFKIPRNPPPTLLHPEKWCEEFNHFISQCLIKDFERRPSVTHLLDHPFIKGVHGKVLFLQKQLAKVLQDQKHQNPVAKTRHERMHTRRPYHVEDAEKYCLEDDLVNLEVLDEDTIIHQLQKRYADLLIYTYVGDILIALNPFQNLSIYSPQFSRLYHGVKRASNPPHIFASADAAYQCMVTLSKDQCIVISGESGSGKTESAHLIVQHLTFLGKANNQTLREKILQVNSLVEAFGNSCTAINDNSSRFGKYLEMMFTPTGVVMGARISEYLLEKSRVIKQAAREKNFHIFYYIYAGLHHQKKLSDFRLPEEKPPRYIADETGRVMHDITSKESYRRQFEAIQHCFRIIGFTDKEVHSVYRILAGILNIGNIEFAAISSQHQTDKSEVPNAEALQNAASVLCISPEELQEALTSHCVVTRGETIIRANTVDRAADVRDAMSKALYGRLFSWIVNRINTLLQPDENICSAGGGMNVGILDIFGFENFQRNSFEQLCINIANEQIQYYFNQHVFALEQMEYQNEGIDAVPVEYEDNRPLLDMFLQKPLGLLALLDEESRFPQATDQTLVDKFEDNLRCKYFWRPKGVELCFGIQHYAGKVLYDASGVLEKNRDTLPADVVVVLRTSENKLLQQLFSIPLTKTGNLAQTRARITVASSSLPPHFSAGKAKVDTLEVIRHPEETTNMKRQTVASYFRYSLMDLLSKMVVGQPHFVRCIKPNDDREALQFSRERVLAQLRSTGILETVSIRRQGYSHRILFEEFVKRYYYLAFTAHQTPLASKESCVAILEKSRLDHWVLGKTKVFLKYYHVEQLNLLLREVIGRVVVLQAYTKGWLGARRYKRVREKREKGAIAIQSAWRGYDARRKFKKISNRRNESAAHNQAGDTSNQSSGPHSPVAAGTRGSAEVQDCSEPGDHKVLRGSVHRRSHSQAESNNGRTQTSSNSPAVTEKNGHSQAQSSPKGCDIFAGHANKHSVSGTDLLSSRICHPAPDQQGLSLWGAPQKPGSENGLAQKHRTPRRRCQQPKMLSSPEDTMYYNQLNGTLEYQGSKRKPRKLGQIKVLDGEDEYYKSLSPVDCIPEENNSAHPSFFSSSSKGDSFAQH
# T18 sequence (Q9UIK4 whole entry): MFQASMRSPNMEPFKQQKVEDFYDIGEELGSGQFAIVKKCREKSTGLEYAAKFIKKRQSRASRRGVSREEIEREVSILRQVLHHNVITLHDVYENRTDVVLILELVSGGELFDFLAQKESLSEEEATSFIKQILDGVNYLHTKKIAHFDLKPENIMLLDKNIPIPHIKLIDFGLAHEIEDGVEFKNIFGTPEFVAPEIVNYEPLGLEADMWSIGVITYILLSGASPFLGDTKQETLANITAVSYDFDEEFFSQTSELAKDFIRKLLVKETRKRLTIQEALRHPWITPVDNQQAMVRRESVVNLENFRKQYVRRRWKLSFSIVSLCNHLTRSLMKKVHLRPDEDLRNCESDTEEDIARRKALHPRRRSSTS
compound,measurement,setting,value
"O=C(O)c1cc(C(F)(F)F)ccc1NCCc1c[nH]c2cc(Br)ccc12 [Compound 5, 2-((2-(6-Bromo-1H-indol-3-yl)ethyl)amino)−5-(trifluoromethyl)benzoic Acid]",activity at 10 µM,[1],81 ± 0.3%
same,activity at 10 µM,[2],92 ± 0.4%
same,activity at 10 µM,[3],115.9 ± 0.9%
same,activity at 10 µM,[4],102 ± 2.5%
same,activity at 10 µM,[5],87 ± 2.6%
same,activity at 10 µM,[6],93.4 ± 0.2%
same,activity at 10 µM,[7],97 ± 1%
same,activity at 10 µM,[8],154.6 ± 0.7%
same,activity at 10 µM,[9],107 ± 1.1%
same,activity at 10 µM,[10],88.9 ± 1%
same,activity at 10 µM,[11],97.8 ± 1.5%
same,activity at 10 µM,[12],78.7 ± 0.8%
same,activity at 10 µM,[13],83.3 ± 2.1%
same,activity at 10 µM,[14],104 ± 1.9%
same,activity at 10 µM,[15],95.5 ± 0.4%
same,activity at 10 µM,[16],96.1 ± 0.2%
same,activity at 10 µM,[17],96.5 ± 0.4%
same,activity at 10 µM,[18],78.8 ± 0.4%
same,activity at 10 µM,[19],93 ± 3.5%
same,activity at 10 µM,[20],95.6 ± 0.3%
same,activity at 10 µM,[21],94 ± 0.9%
same,activity at 10 µM,[22],104.3 ± 0.7%
same,activity at 10 µM,[23],121 ± 3%
same,activity at 10 µM,[24],69.1 ± 1%
same,activity at 10 µM,[25],90.2 ± 0.5%
same,activity at 10 µM,[26],87.8 ± 1%
same,activity at 10 µM,[27],57.6 ± 2%
same,activity at 10 µM,[28],77.9 ± 2.9%
same,activity at 10 µM,[29],100.9 ± 0.9%
same,activity at 10 µM,[30],103 ± 3.6%
same,activity at 10 µM,[31],156 ± 1.8%
same,activity at 10 µM,[32],65.6 ± 1.3%
same,activity at 10 µM,[33],94.3 ± 0.5%
same,activity at 10 µM,[34],102.2 ± 0.1%
same,activity at 10 µM,[35],93.7 ± 1.8%
same,activity at 10 µM,[36]; CDK5/P25,48.6 ± 1.3%
same,activity at 10 µM,[36]; CDK5/P35,88.8 ± 0.3%
